Results on 1 compound are retold here after ChEMBL document CHEMBL5726383, “Heteroaryls and uses thereof” (2017).

This assay has as its target Phosphatidylinositol 3-kinase catalytic subunit type 3 (Homo sapiens, UniProt Q8NEB9). Put plainly: VPS34 Enzyme Assays: 100 nL compounds in DMSO are added to wells of a 384 well microtitre plate (Greiner 780076). At room temperature: 5 ul VPS34 reaction buffer (Invitrogen Assay Buffer Q (diluted 1 in 5 with nanopure water) plus 2 mM DTT and 2 mM MnCl2) containing ATP (20 uM, Promega) and 200 uM PI-PS substrate (Invitrogen PV5122) is added followed immediately by 5 ul VPS34 reaction buffer (as above) containing VPS34 (5 nM, Millennium Protein Sciences Group) and the mixture is incubated with shaking at room temperature for 1 hour. Then 5 ul VPS34 stop-detect mix (as per Invitrogen Adapta Assay kit (PV5009) instructions (contains kinase quench buffer, TR-FRET buffer, Adapta Eu anti-ADP antibody and Alexa Fluor 647 ADP tracer)) is added to quench the reaction. The plates are then incubated for 30 minutes at room temperature with shaking and then read on a BMG PheraStar Plus reader. (In TR-FRET formats the signal depends on donor and acceptor labels being close together.)

Some results are limits rather than exact numbers.

Chain of Phosphatidylinositol 3-kinase catalytic subunit type 3 (Q8NEB9 whole entry): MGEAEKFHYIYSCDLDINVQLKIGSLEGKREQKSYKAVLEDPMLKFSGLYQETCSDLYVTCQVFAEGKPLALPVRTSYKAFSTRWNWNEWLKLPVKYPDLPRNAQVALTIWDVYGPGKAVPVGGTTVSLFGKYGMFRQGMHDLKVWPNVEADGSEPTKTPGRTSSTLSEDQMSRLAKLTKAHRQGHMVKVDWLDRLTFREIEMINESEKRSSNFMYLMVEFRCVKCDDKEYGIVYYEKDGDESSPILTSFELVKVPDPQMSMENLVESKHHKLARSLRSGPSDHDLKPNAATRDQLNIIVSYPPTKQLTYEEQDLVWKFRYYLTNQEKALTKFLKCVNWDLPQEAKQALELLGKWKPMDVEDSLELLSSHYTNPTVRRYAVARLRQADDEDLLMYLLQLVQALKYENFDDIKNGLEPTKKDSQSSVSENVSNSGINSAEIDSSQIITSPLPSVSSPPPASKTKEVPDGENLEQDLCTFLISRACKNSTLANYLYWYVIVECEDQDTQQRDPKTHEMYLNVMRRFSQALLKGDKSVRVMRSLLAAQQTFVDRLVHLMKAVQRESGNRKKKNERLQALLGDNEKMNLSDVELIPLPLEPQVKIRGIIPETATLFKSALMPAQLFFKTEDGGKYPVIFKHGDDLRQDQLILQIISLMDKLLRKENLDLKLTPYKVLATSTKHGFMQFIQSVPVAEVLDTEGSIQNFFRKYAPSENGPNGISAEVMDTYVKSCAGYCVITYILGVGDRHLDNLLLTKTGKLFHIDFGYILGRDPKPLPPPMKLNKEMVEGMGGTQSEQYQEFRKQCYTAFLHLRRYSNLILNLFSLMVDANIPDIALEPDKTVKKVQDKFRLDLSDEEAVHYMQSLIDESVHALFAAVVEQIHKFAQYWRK

A word on the IC50: it is the concentration needed to halve the response being measured. Regarding `CC(=O)Nc1cc(-c2cnc(C)c(NS(=O)(=O)c3ccc(C)cc3Cl)c2)ccn1`, the IC50 is less than 10 nM.
